Laboratory results: patent US5554636A, “N-acylated 4-hydroxphenylamine derivatives with analgesic properties and pharmaceutical compositions containing them” (priority 1995, dated 1996)

What was measured:
[1] = test system: pain response (tail flick) in CD-1 mice; assay: tail flick analgesic test; type: in vivo, CD-1 mice (Charles-River); details: for analgesic activity in tail flick test: mice, oral
Description: (§1) Analgesic activity was measured in CD-1 mice (Charles-River) on the basis of the following three methods:
In the tail flick method (D'Amour, F. E., Smith, D. L., J. Pharmacol. Exp. Ther. 72, 74, 1941), the tail of each mouse is exposed to a concentrated light beam; when the animal feels pain, it removes its tail abruptly from said beam, and the latency time of this flick response is measured. The compound indicated by each symbol was administered orally to groups of 10 mice at the doses indicated as abscissae. The analgesia was quantified before and 15, 30, 60 and 120 minutes after the administration of each compound. The peak activity (30 minutes) was plotted as the percentage of mice in which the latency time for flicking the tail was at least doubled.

[2] = test system: pain response (hotplate) in CD-1 mice; assay: hotplate analgesic test; type: in vivo, CD-1 mice (Charles-River); details: for analgesic activity in hotplate test (words): mice, oral
Description: as §1
The second method employed is the hotplate method (Wolfe, G. and MacDonald, A. D., J. Pharmacol. Exp. Ther. 80, 300, 1944). The mouse is placed on a plate at 54° C., and the latency time of withdrawal of a hind foot or a jump is measured. Groups of 10 mice, to which the compounds were administered orally at the doses indicated as abscissae, were subjected to the hotplate test before and at the end of 30 and 60 minutes following administration of the compounds. The mean latency at 30 and 60 minutes minus the baseline latency is plotted as ordinates.

[3] = test system: writhes produced by intraperitoneal acetic acid in CD-1 mice; assay: acetic acid writhing test; type: in vivo, CD-1 mice (Charles-River); details: oral; for ED50: Mus musculus, 25 min, 0.4% acetic acid i.p. 25 minutes later
Description: as §1
(§2) The third method consists in measuring the number of writhes performed by a mouse as a manifestation of the pain produced by an intraperitoneal injection of 10 mL/kg of 0.4% acetic acid solution. […] Following oral administration of each compound, the mice (groups of 8 or more) received, 25 minutes later, an intraperitoneal injection of 10 mL/kg of 0.4% acetic acid. The number of writhes was counted 5-15 minutes after the injection of acetic acid.

[4] = test system: yeast-induced pyretic response in Sprague-Dawley rats; assay: antipyretic activity (yeast-induced temperature increase); type: in vivo; details: oral; for antipyretic effect: at the doses studied
Description: Antipyretic activity was determined in Sprague-Dawley rats weighing 130-220 g. The animals were injected subcutaneously with a 15% suspension of yeast dissolved in saline solution (1 mL/100 g body weight). Body temperature was measured by means of a rectal thermistor connected to a Cole-Palmer remote thermometer. The temperature at which the experiment was started was the temperature determined 2 hours after the administration of yeasts. Temperature measurements were subsequently made in animals to which paracetamol (standard) or the test compound was administered orally (Suspension K, Bioserve). The results, expressed as the percentage increase in temperature from the baseline value to that obtained 6 hours after the subcutaneous administration of yeast, are given in FIG. 4.

mice = assay: mortality after oral administration; details: summary statement
Description: (§3) Toxicity studies were based on the measurement of two parameters: mortality and hepatotoxicity.
Mortality was determined by means of the oral administration of 1 g/kg of paracetamol or the test compound (in Suspension K, Bioserve). For this purpose, the number of mice surviving 18 hours after the administration of each compound was counted.

[5] = test system: plasma GPT and GOT transaminase levels; details: mouse, in vivo
Description: as §3
(§4) For the hepatotoxicity study, mice were kept fasted overnight. The following morning, the compounds were administered orally under ether anesthesia. […] Paracetamol was dissolved in 0.5% tragacanth in saline solution. 24 hours after administration of the compounds, blood was withdrawn from the orbital plexus of the mice anesthetized with ether, and placed in heparinized capillary tubes. The samples were centrifuged at 2000 rpm for 10 minutes, and the plasma glutamic-oxaloacetic transaminase (GOT) and glutamicpyruvic transaminase (GPT) levels were determined spectrophotometrically using Sigma kits. The number of animals used in each group is indicated within each column.

[6] = solubility remark in hepatotoxicity study; type: physicochemical
Description: as §4

[7] = test system: pain response in CD-1 mice; assay: overall analgesic activity (tail flick, hotplate and acetic acid tests); type: in vivo, CD-1 mice (Charles-River); details: oral
Description: as §1, §2

With O=C(CN1C(=O)c2ccccc2S1(=O)=O)Nc1ccc(O)cc1 [Example 1, 2-[2,3-Dihydro-3-oxo-1,2-benzisothiazol-2-yl 1,1-dioxide]-N-(4-hydroxyphenyl)acetamide] the “analgesic activity in tail flick test” value [1] was “did not display activity”, the “analgesic activity in hotplate test (words)” value (“analgesic activity … (words)” for short) [2] was “did not display activity” and the ED50 [3] was 121 mg/kg. For the same molecule, the “analgesic activity in acetic acid test” value [3] was “displayed an analgesic effect”, the “antipyretic effect” value [4] was “did not display antipyretic effects” and the “antipyretic effect” value ([4]; listed as Example I) was “not possessing antipyretic effects”. For the same molecule, the “toxicity compared with paracetamol” value (mice) was “much lower toxicity”, the “hepatotoxicity” value [5] was “lacks hepatotoxicity” and the “solubility” value [6] was “poor solubility”. The “analgesic profile / analgesic activity” value [7] was “analgesic profile identical to that of paracetamol” and the “analgesic profile / analgesic activity” value ([7]; listed as Example I) was “analgesic activity equivalent to that of paracetamol”.

For CN1CC[C@]23c4c5ccc(O)c4O[C@H]2[C@@H](O)C=C[C@H]3[C@H]1C5 [Morphine], the ED50 ([1]; Mus musculus, po, read-out: ED50, tail flick test) was 28.5 mg/kg, the “analgesic activity in tail flick test” value [1] was “active” and the ED50 ([2]; Mus musculus, po, read-out: ED50, hotplate test) was 22.3 mg/kg. For the same molecule, the “analgesic activity … (words)” value [2] was “active” and the “analgesic activity in acetic acid test” value [3] was “active”.

With CC(=O)Nc1ccc(O)cc1 [Paracetamol] the “analgesic activity in tail flick test” value [1] was “did not display activity”, the “analgesic activity … (words)” value [2] was “minimally active” and the “analgesic activity … (words)” value ([2]; listed as paracetamol) was “did not display activity”. For the same molecule, the ED50 [3] was 130 mg/kg, the “analgesic activity in acetic acid test” value [3] was “effective” and the ED50 ([4]; Rattus norvegicus, yeast s.c., read-out: ED50, reduction of pyretic response) was 77.7 mg/kg. For the same molecule, the “antipyretic effect” value [4] was “reduced the pyretic response in a dose-dependent manner”.
